What was measured:
Portulaca oleracea = test: Greenhouse experiment, post emergence herbicidal activity; type: in vivo; conditions: POROL, BBCH 12-14, Flumioxazin 4, Bifenox 168 g ai/ha
Procedure: (§1) For the post emergence treatment, the plants were first grown to the 2 to 4 leaf stage (GS 12/14). The plants were cultivated due to their individual requirements at 10-25° C. and 20-35° C. The plants were irrigated as required.
(§2) Here, the herbicidal compositions were suspended or emulsified in water as distribution medium and sprayed using finely distributing nozzles. 1% methylated seed oil (MSO) has been added as adjuvant to each of the solo and mixture treatments.
(§3) In the greenhouse experiments, the herbicidal activity for the individual herbicidal compositions (solo and mixture applications) was assessed 20/21 days after treatment (DAT).
(§4) The evaluation for the damage on undesired weeds caused by the chemical compositions was carried out using a scale from 0 to 100%, compared to the untreated control plants. Here, 0 means no damage and 100 means complete destruction of the plants.

Solanum nigrum = test: as above; type: in vivo; conditions: SOLNI, BBCH 12-14, Flumioxazin 1, Fomesafen 123 g ai/ha
Procedure: as §1, §2, §3, §4

HELAN Pacino = test: Greenhouse experiment, crop safety of sunflower; type: in vivo, Helianthus annuus; conditions: scale 0 to 100%
Procedure: as §1, §2, §3, §4

sunflower = conditions: applied to sunflower with at least two true leaves; cited from earlier work
Amaranthus retroflexus = test: Field experiment, post-emergence herbicidal activity; type: in vivo; conditions: AMARE, postemergence
Procedure: (§5) Trial Objective: Saflufenacil in tank mix with Pendimethalin efficacy on weeds and grasses in early post-emergence of the weeds
(§6) On field test sites, natural weed infestation was treated, pre-emergence of the weeds on bare soil or post-emergence of the weeds.
(§7) For the post emergence treatment, the weedy plants were treated between the 2-4 true leaf stage (GS12-14) and the 6 true leaf stage (GS 16). The herbicidal compositions were suspended or emulsified in water as distribution medium and sprayed with commercial flat fan nozzles using between 100 and 200 l/ha water.
as §4, with “In the following experiments, the herbicidal activity for the individual herbicidal compositions (solo and mixture applications) was assessed up to 36 days after treatment (DAT). The” for “The”, “assessments” for “evaluation”
(§8) [formula] • where X=effect in percent using herbicide (A) at an application rate a; • Y=effect in percent using herbicide (B) at an application rate b; • E=expected effect (in %) of herbicide (A)+herbicide (B) at application rates a+b.
(§9) The value E corresponds to the effect (plant damage or injury) which is to be expected if the activity of the individual compounds is additive. If the observed effect is higher than the value E calculated according to the Colby equation, a synergistic effect is present.

Echinochloa crus-galli = test: as above; type: in vivo; conditions: ECHCG, postemergence
Procedure: as §5, §6, §7
as §4, with “In the following experiments, the herbicidal activity for the individual herbicidal compositions (solo and mixture applications) was assessed up to 36 days after treatment (DAT). The” for “The”, “assessments” for “evaluation”
as §8, §9

Mercuralis annua = test: as above; type: in vivo; conditions: MERAN, postemergence, Saflufenacil 12.5, Pendimethalin 1365 g ai/ha
Procedure: as §5, §6, §7
as §4, with “In the following experiments, the herbicidal activity for the individual herbicidal compositions (solo and mixture applications) was assessed up to 36 days after treatment (DAT). The” for “The”, “assessments” for “evaluation”
as §8, §9

[1] = Saflufenacil 12.5, Pendimethalin 1064 g ai/ha

SMILES | % Herbicidal activity (Portulaca oleracea) [%] | % Herbicidal activity (Solanum nigrum) [%] | Observed crop damage 21 days after treatment (HELAN Pacino; BBCH 12-14, Flumioxazin 0.5, Bifenox 168 g ai/ha) [%] | Observed crop damage 21 days after treatment (HELAN Pacino; BBCH 12-14, Flumioxazin 0.5, Halauxifen 1 g ai/ha) [%] | crop injury (sunflower) | % Herbicidal activity (Amaranthus retroflexus; Saflufenacil 12.5, Pendimethalin 840 g ai/ha) [%] | % Herbicidal activity (Amaranthus retroflexus; [1]) [%] | % Herbicidal activity (Echinochloa crus-galli; [1]) [%] | % Herbicidal activity (Echinochloa crus-galli; Saflufenacil 12.5, Pendimethalin 1365 g ai/ha) [%] | % Herbicidal activity (Echinochloa crus-galli; Saflufenacil 50, Pendimethalin 1064 g ai/ha) [%] | % Herbicidal activity (Mercuralis annua) [%]
C#CCN1C(=O)COc2cc(F)c(N3C(=O)C4=C(CCCC4)C3=O)cc21 [Flumioxazin, 2-[7-fluoro-3,4-dihydro-3-oxo-4-(2-propyn-1-yl)-2H-1,4-benzoxazin-6-yl]-4,5,6,7-tetrahydro-1H-isoindole-1,3 (2H)-dione] | 98 | 90 | 65 | 65 | without high level of crop injury |  |  |  |  |  | 
CC(C)N(C)S(=O)(=O)NC(=O)c1cc(-n2c(=O)cc(C(F)(F)F)n(C)c2=O)c(F)cc1Cl [Saflufenacil, 2-chloro-5-[3,6-dihydro-3-methyl-2,6-dioxo-4-(trifluoromethyl)-1-(2H)pyrimidinyl]-4-fluoro-N-[[methyl (1-methylethyl)amino]-sulfonyl]benzamide] |  |  |  |  |  | 35 | 60 | 0 | 5 | 0 | 0
